SMILES	melting point [°C]
COC(=O)CC(=O)C1CCC2C3CCC4CC(O)CCC4(C)C3C(=O)CC12C (stereo not drawn)	150 to 152
COc1ccc(C2=NN(CC3CCCCC3)C(=O)[C@H]3CCCC[C@@H]23)cc1OC (relative stereo)	137 to 139
Cc1cc(Oc2cccc(C(F)(F)F)c2)c(C)cc1N=CNC#N	138 to 140
O=S(=O)(Nc1cccc(CCOCc2csc(-c3ccc(Cl)cc3)n2)c1)C(F)(F)F	114 to 116
NCC(O)COc1cccc(Cl)c1 (stereo not drawn)	55 to 58
O=C(NCCCOCCCNC(=O)c1ccc(OC(F)(F)F)cc1)c1ccc(OC(F)(F)F)cc1	118 to 120
OCCC(c1ccccc1)C(O)(c1ccccc1)c1ccc(O)cc1 (stereo not drawn)	192 to 194
COc1nscc1C(=O)O	182 to 185
O=C1CC(C(F)(F)F)CC(=O)O1	88 to 91
CCC1CS(=O)(=O)c2ccccc2C2(c3ccccc3)OC12 (stereo not drawn)	185 to 186
Nc1cc(N2C(=O)CN(CCCF)C2=O)c(F)cc1Cl	89 to 91
O=C(NCC(F)F)/C(=C/c1ccc(OC(F)(F)F)cc1)NC(=O)c1ccc(OCCC(F)(F)F)cc1	142 to 143
Cc1c(-c2cc(C(=O)O)c(Cl)cc2F)nn(C)c1C(F)(F)F	155
CCCCCC(=O)c1cc2c(cc1/C=C/c1ccc(C(=O)O)cc1)C(C)(C)CCC2(C)C	118 to 119
CCC(=O)C(CC(=O)c1ccccc1)C(O)=S (stereo not drawn)	110 to 112
COc1ccc(N2CCN(C(=O)c3cn4cc(Cl)ccc4n3)CC2)cc1	180 to 181
O[C@@H]1[C@H](O)CS[C@H]1n1cnc2c(NCc3cccc(I)c3)ncnc21	199 to 200
Cc1nc2cc(C#N)ccc2s1	158 to 160
Cc1ccc(CCCCOCCCCCCNCC(O)c2ccc3c(n2)COC(c2ccccc2)O3)cc1 (stereo not drawn)	74
C[C@]12CCC(=O)N[C@@H]1CCc1cc(SCc3ccccc3)ccc12	172 to 174

SMILES	melting point [°C]
C=C1C=C(Oc2cc(C(=O)Nc3c(Cl)cncc3Cl)ccc2OC)C1(F)F	102 to 104
Cc1ccc2c(C(=O)C(F)(F)F)c[nH]c2c1	216 to 218
CC(=O)OCC(=O)C1(O)CCC2C3CC=C4C=C(OC(C)=O)C=CC4(C)C34OC4CC21C (stereo not drawn)	194
Nc1ccc2[nH]c3cc(-c4ccccc4Cl)c4c(c3c2c1)C(=O)NC4=O	216 to 222
CCCCn1cc(S(C)=O)c(=O)c2sccc21 (stereo not drawn)	137 to 138
Cc1nc(-c2ccc(C(F)(F)F)cc2)oc1CSc1ccc(OCC(=O)O)cc1	131 to 133
CCCCCCCCCCCC=C1NN=CN1N	40 to 43
N=C(Nc1cc(Cl)cc(NC(=O)C=Cc2ccccc2Cl)c1)c1ccc(NCc2ccccn2)cc1	119 to 122
CCc1nc2c(cnn2CC)c(NC2CCOCC2)c1CNC(=O)c1cccc(C(=O)NCc2ccc(Cl)c(-c3cccc(CN4CC5CC4CN5)c3)c2)c1 (stereo not drawn)	145 to 149
CS(=O)(=O)c1ccc(-c2nc3cc(C4CCN(S(=O)(=O)CCCO)CC4)ccc3o2)c(F)c1	204 to 206
[N-]=[N+]=NC1(O)CC(n2cc(I)c(=O)[nH]c2=O)OC1CO (stereo not drawn)	126 to 130
Cc1c(SCCCSCc2ccc(Cl)s2)ccnc1CSc1ccncc1	76 to 77
CN1C(=O)C(C)(C)Oc2c(C(=O)O)cc(Cl)cc21	235 to 236
CS(=O)(=O)Oc1ccc2c(c1)C1(CCCC1)CO2	75 to 77
CCCCP(=O)(C(=O)c1c(OC)cccc1OC)C(=O)c1c(OC)cccc1OC	151 to 152
O=C(O)c1cc(C#Cc2ccc(C(=O)O)c(C(=O)O)c2)cc(C(=O)O)n1	> 300
CC(C)[C@H](C[C@H](N=[N+]=[N-])[C@@H]1C[C@@H](C(C)C)C(=O)O1)C(=O)O	56 to 58
CSc1ccc(C(=O)CBr)c(F)c1	55 to 59
CCn1cc(C(=O)O)c(=O)c2cc(F)c(N3CC(C)(N)C3)cc21	280 to 283
CS(=O)(=O)c1ccc(-c2cc(C#N)c(Br)nc2-c2ccc(F)cc2)cc1	230 to 232

SMILES	melting point [°C]
ON=C(c1ccc(Cl)cc1)C1(n2cncn2)CC1	186 to 218
Nc1nc(N)nc(-c2ccc3c(c2)OCCO3)n1	241 to 244
COc1cc2cc3c(Nc4ccc(Sc5nccn5C)c(Cl)c4)c(C#N)cnc3cc2cc1OCCn1nccn1	235 to 237
COc1cc2ncc(C#N)c(Nc3ccc4[nH]ccc4c3)c2cc1OC	> 250
N=C(N)Nc1ccc(Cl)c(Cl)c1	208
O=C(Cl)c1cc(OCc2ccccc2)cc(OCc2ccccc2)c1	73 to 74
CCOC(=O)C1=Cc2cc(Cl)c(F)cc2OC1C(F)(F)F (stereo not drawn)	97.6 to 98.6
Nn1c(=O)c2cc(F)c(Cl)nc2n(C2CC2)c1=O	192 to 194
CC(=O)NCc1ccc(CO)cc1[N+](=O)[O-]	133 to 135
CC1OC(O)CC(O)C1O (stereo not drawn)	102 to 105
COc1cc(Cc2cc3cccc(-c4cccc(C(=O)NCCC#N)c4)c3s2)ccc1F	158 to 159
O=C1CC(=O)CC(c2ccccc2Cl)C1	157 to 158
O=C(C(=C1NCCCS1)[N+](=O)[O-])c1ccc([N+](=O)[O-])cc1	158 to 160
CC1(C)CCSc2ccc(CC#Cc3ccc(C(=O)O)c(O)c3)cc21	195 to 196
NS(=O)(=O)c1ccc(N2CCN(CC[C@H]3OCCc4ccccc43)CC2)cc1	189 to 190
OC(Cn1ccnc1)(c1ccc(F)cc1)c1ccc(-c2ccccc2)cc1 (stereo not drawn)	220
COc1cc(CCCCC2OC(=O)NC2=O)ccc1OCc1coc(/C=C/c2ccc3ccccc3c2)n1 (stereo not drawn)	169 to 170
FCc1cccc(C#CCCn2nc3cc(F)c(F)cc3n2)n1	104 to 105
N#Cc1ccc(OCCCCCCCCCCCCOc2ccc(C#N)c(C#N)c2)cc1C#N	104 to 107
N=C(NO)c1nc(-c2ccc(Cl)cc2)cc(C(F)(F)F)n1	243

Results, then the molecule that gave them:

melting point [°C]	SMILES
184 to 186	Cc1nc(-c2ccc3c(=O)n(CC(C)C)c(CNC(=O)OC(C)(C)C)c(-c4ccccc4)c3c2)sc1C(=O)O
89.2 to 89.5	CCN(CC)Cc1cccc(-c2cc(OCc3ccccc3)c3cc(OC)ccc3n2)c1
241 to 242	CCCc1nc2c(N)nc3ccccc3c2n1CC1(O)CCN(C)CC1
148 to 150	CSc1cccc(Cc2sc(NC(C)=O)nc2C=O)c1
168 to 170	Cc1nc(NC(=O)c2ccc(OC(F)(F)F)cc2)sc1C(=O)NCc1ccccc1
119 to 120	CC(=O)Oc1cc(/C=C/c2ccccc2)cc(OC(C)=O)c1OC(C)=O
208 to 209	Cc1ccc(Nc2nc(=O)c3cccnc3s2)cc1
234 to 236	COc1ccc(C(=O)Nc2ccc(F)c(F)c2)cc1NS(=O)(=O)c1ccc([N+](=O)[O-])cc1
128 to 129	CCOC(=O)C1=C(C)NC(=O)N(C(=O)OC(C)C)C1c1cccc([N+](=O)[O-])c1 (stereo not drawn)
80 to 82	CCC(C)c1ccc(N(Cc2ccc(C(C)(C)C)cc2)C(=N)N(C)c2ccccc2)cc1 (stereo not drawn)
168 to 174	Cc1ccc2nc(NCCCO)ccc2c1NC(=O)CC12CC3CC(CC(C3)C1)C2
194 to 198	COc1nc(NC(=O)NS(=O)(=O)c2ccccc2C)nc(N(C)C)n1
160 to 165	CCOC(=O)c1cn(Cc2ccccc2)c2cc(C3CC3)nn2c1=O
205 to 207	Cc1c(-c2ccccc2)sc2c1c(=O)c(C(=O)C(C)C)cn2Cc1c(F)cccc1F
184	CC(=O)Nc1ccc(S(=O)(=O)N2CCN(C)CC2)cc1
155 to 158	CCOC(=O)c1cnc2cc(OC)c(OC)cc2c1Nc1cccc(Br)c1
214 to 216	CC(C)(C)OC(=O)Nc1ccc(-c2ccc(-c3ccccc3)cc2)cc1NC(=O)CC(=O)c1cccc(C#N)c1
154 to 156	CCCCCCCCCCCCCCCCCCS(=O)(=O)Nc1cc(C(=O)Nc2ccccc2)ccc1OC
107 to 108	CSc1ncccc1NC(=O)CCCCCCCCSc1nc2ccccc2s1

melting point [°C]	SMILES
> 300	Cc1ccccc1C=C1CCc2c1oc1ccc(C(=O)O)cc1c2=O
172 to 173	COc1ccc(C(CN(C)C(=O)/C=C/c2cccnc2)=NO)cc1OC
124 to 128	Cc1c(CCNC(=O)OC(C)(C)C)c2cc(S(=O)(=O)c3ccc(C(F)(F)F)cc3)ccc2n1C
131 to 134	COc1ccc(CNn2c(=O)ccc3ccc(N4CCC[C@H]4CO)nc32)cc1Cl
62 to 63	COc1ccc(Cc2nc(N(C)CCO)c3c(C)c(C#N)sc3n2)cc1OC
138 to 139	COC(=O)C1=C(CCc2ccccc2)NC(CC(=O)N2CCN(C)CC2)=C(C(=O)OC)C1c1c(Cl)cccc1Cl (stereo not drawn)
177 to 179	CC(=O)Nc1c(C(=O)c2ccccc2)[nH]c2cc(C(F)(F)F)ccc12
82 to 84	CCOC(=O)CC(=O)c1ccc(N)cc1
257 to 260	CC(C)C(C)Nc1c(NCc2ccc(C#N)cc2)c(=O)c1=O (stereo not drawn)
129 to 130	COc1ccc(CCl)cc1OCc1nc(-c2ccccc2)oc1C
54 to 55.2	CCCCN(C)C(=O)OCCCc1ccc(OCCOC)cc1Oc1ncc(C(F)(F)F)cc1Cl
170	O=S(=O)(Nc1cccc(C(=NO)c2cccnc2)c1)c1ccc(Cl)cc1
206 to 207	CC(=O)n1nc(-c2c(C)cc(C)c(N)c2C)n2nc(C(C)(C)C)cc12
96 to 100	CCOC(=O)C(C(=O)OCC)c1cccc(C(=O)c2ccc(Cl)cc2)c1[N+](=O)[O-]
160 to 162	COc1ccc(-c2nc3cccc(C(=O)NC4CC5CCCC(C4)N5C)c3o2)cc1 (stereo not drawn)
257 to 259	CC(=O)Nc1cc(-c2ccncc2)cc2nc(-c3ccc(C)o3)nn12
150 to 152	CC1(C)CC=C(Nc2ccccc2Cl)C(=O)C1
175 to 177	Cc1ccc(C(O)(Cc2nnnn2C)c2ccc(C)cc2C)c(C)c1
104	COc1ccc(OCCCN(Cc2cccc(O)c2)c2nc3ccccc3o2)cc1

Source: a melting point compilation (Tetko et al.; mined from patent text by program, amines drawn as free bases though some values may be those of a salt)
